Here are results for 33 compounds from ChEMBL document CHEMBL1125556, “Fluoroquinolones: relationships between structural variations, mammalian cell cytotoxicity, and antimicrobial activity” (J Med Chem, 1992).

Values after ≈ are worked out from the molar mass of the structure shown.

Assay [1] has as its system V79. Description: Mammalian cell cytotoxicity test in chinese hamster V79 cells (clonogenic cytotoxicity). The format is functional, cell-based.
The nature of assay [2]: Antibacterial activity against five Gram-negative bacteria. The format is functional.
Where [3] appears, read: Cricetulus griseus, V79, read-out: IC50.

In the case of `NC1CCN(c2nc3c(cc2F)c(=O)c(C(=O)O)cn3-c2ccc(F)cc2F)C1` (stereo not drawn) [TOSUFLOXACIN], the IC50 (in general, the concentration at which inhibition is half-maximal) in assay [1] (setting [3]) is 128 µg/mL (≈ 317 µM). In assay [2] (read-out: MIC), the MIC – broadly, the lowest concentration found to suppress growth – turned out to be 0.09 µg/mL (≈ 0.223 µM).
The like results for `CNCC1(C)CCN(c2c(F)cc3c(=O)c(C(=O)O)cn(C4CC4)c3c2Cl)C1` (stereo not drawn) were, in that order, 23 µg/mL (≈ 56.4 µM) and 0.26 µg/mL (≈ 0.637 µM).
The like results for `COc1c(N2CCC(C)(N)C2)c(F)cc2c(=O)c(C(=O)O)cn(C3CC3)c12` (stereo not drawn) were, in that order, 38 µg/mL (≈ 101 µM) and 0.26 µg/mL (≈ 0.693 µM).
The like results for `NCC1CCN(c2cc3c(cc2F)c(=O)c(C(=O)O)cn3C2CC2)C1` (stereo not drawn) were, in that order, 81 µg/mL (≈ 235 µM) and 0.2 µg/mL (≈ 0.579 µM).
Take `CNCC1(C)CCN(c2c(F)cc3c(=O)c(C(=O)O)cn(C4CC4)c3c2F)C1` (stereo not drawn): the IC50 in assay [1] (setting [3]) was determined as 8 µg/mL (≈ 20.4 µM). Moreover, in assay [2] (read-out: MIC), the MIC was determined as 0.23 µg/mL (≈ 0.588 µM).
In the case of `NC1CCN(c2c(F)c(F)c3c(=O)c(C(=O)O)cn(C4CC4)c3c2F)C1` (stereo not drawn), the IC50 in assay [1] (setting [3]) worked out at 100 µg/mL (≈ 272 µM). For the same compound, the MIC in assay [2] (read-out: MIC) was 0.08 µg/mL (≈ 0.218 µM).
In the case of `CCNCC1CCN(c2c(F)cc3c(=O)c(C(=O)O)cn(CCO)c3c2F)C1` (stereo not drawn), in assay [1] (setting [3]), the IC50 is above 500 µg/mL. Besides, the MIC in assay [2] (read-out: MIC) was found to be 50 µg/mL (≈ 126 µM).
`CC1(n2cc(C(=O)O)c(=O)c3cc(F)c(N4CCC(N)C4)c(F)c32)CC1` (stereo not drawn): the IC50 in assay [1] (setting [3]) was 160 µg/mL (≈ 440 µM). Besides, the MIC in assay [2] (read-out: MIC) is 0.3 µg/mL (≈ 0.826 µM).
Consider `COc1c(N2CCNCC2)c(F)cc2c(=O)c(C(=O)O)cn(C3CC3)c12`, for which the IC50 in assay [1] (setting [3]) came out at 82 µg/mL (≈ 227 µM). Also, in assay [2] (read-out: MIC), the minimal inhibitory concentration (MIC) came to 0.07 µg/mL (≈ 0.194 µM).
The like results for `CC1(N)CCN(c2c(F)cc3c(=O)c(C(=O)O)cn(-c4ccc(F)cc4F)c3c2C(F)(F)F)C1` (stereo not drawn) were, in that order, 18 µg/mL (≈ 37.1 µM) and 2.07 µg/mL (≈ 4.26 µM).
The like results for `NCC1CCN(c2c(F)cc3c(=O)c(C(=O)O)cn(C4CC4)c3c2F)C1` (stereo not drawn) were, in that order, 11 µg/mL (≈ 30.3 µM) and 0.05 µg/mL (≈ 0.138 µM).
The like results for `NC1CCCN(c2cc3c(cc2F)c(=O)c(C(=O)O)cn3C2CC2)C1` (stereo not drawn) were, in that order, above 500 µg/mL and 0.91 µg/mL (≈ 2.63 µM).
`CC1COc2c(N3CCN(C)CC3)c(F)cc3c(=O)c(C(=O)O)cn1c23` (stereo not drawn) [OFLOXACIN]: the IC50 in assay [1] (setting [3]) was above 500 µg/mL. Further, in assay [2] (read-out: MIC), the MIC is 0.2 µg/mL (≈ 0.553 µM).
The compound `NC1CCN(c2cc3c(cc2F)c(=O)c(C(=O)O)cn3C2CC2)C1` (stereo in doubt; 44) came in with an IC50 in assay [1] (v79) of 72 µg/mL (≈ 217 µM). Moreover, the MIC in assay [2] stood at 0.09 µg/mL (≈ 0.272 µM).
Turning to `NCC1CCN(c2nc3c(cc2F)c(=O)c(C(=O)O)cn3C2CC2)C1` (stereo not drawn), the IC50 in assay [1] (setting [3]) turned out to be 51 µg/mL (≈ 147 µM). Further, the MIC in assay [2] (read-out: MIC) came out at 0.14 µg/mL (≈ 0.404 µM).
The like results for `CNCC1(C)CCN(c2c(F)cc3c(=O)c(C(=O)O)cn(C4CC4)c3c2OC)C1` (stereo not drawn) were, in that order, 120 µg/mL (≈ 297 µM) and 0.52 µg/mL (≈ 1.29 µM).
The like results for `O=C(O)c1cn(C2CC2)c2c(C(F)(F)F)c(N3CCNCC3)c(F)cc2c1=O` were, in that order, 1650 µg/mL (≈ 4130 µM) and 0.15 µg/mL (≈ 0.376 µM).
The like results for `COc1c(N2CCC(CN)C2)c(F)cc2c(=O)c(C(=O)O)cn(C3CC3)c12` (stereo not drawn) were, in that order, 10 µg/mL (≈ 26.6 µM) and 0.11 µg/mL (≈ 0.293 µM).
In the case of `NC1CCN(c2c(F)c(Cl)c3c(=O)c(C(=O)O)cn(C4CC4)c3c2Cl)C1` (stereo not drawn), the IC50 in assay [1] (setting [3]) was above 500 µg/mL. In addition, the MIC in assay [2] (read-out: MIC) was 0.13 µg/mL (≈ 0.325 µM).
For `Nc1c(F)c(N2CCC(N)C2)cc2c1c(=O)c(C(=O)O)cn2C1CC1` (stereo not drawn), the IC50 in assay [1] (setting [3]) is 54 µg/mL (≈ 156 µM). Moreover, the MIC in assay [2] (read-out: MIC) stood at 0.04 µg/mL (≈ 0.115 µM).
On to `CCNCC1CCN(c2c(F)c(NC(C)=O)c3c(=O)c(C(=O)O)cn(C4CC4)c3c2F)C1` (stereo not drawn), for which, in assay [1] (setting [3]), the IC50 is above 500 µg/mL. Further, in assay [2] (read-out: MIC), the MIC is above 25 µg/mL.
Regarding `Cc1c(F)c(N2CCC(N)C2)c(C(F)(F)F)c2c1c(=O)c(C(=O)O)cn2C1CC1` (stereo not drawn), in assay [1] (setting [3]), the half-maximal inhibitory concentration (IC50) came to 290 µg/mL (≈ 702 µM). Also, the MIC in assay [2] (read-out: MIC) was 0.91 µg/mL (≈ 2.2 µM).
The like results for `Cc1c(F)c(N2CCC(N)C2)c(F)c2c1c(=O)c(C(=O)O)cn2C1CC1` (stereo not drawn) were, in that order, 11 µg/mL (≈ 30.3 µM) and 0.02 µg/mL (≈ 0.055 µM).
For `CN1CCN(c2c(F)cc3c(=O)c(C(=O)O)cn(CCF)c3c2F)CC1` [FLEROXACIN], in assay [1] (setting [3]), the half-maximal inhibitory concentration (IC50) was above 500 µg/mL. The MIC in assay [2] (read-out: MIC) was determined as 0.35 µg/mL (≈ 0.948 µM).
Consider `NC1CCCN(c2c(F)cc3c(=O)c(C(=O)O)cn(C4CC4)c3c2Cl)C1` (stereo not drawn), for which the IC50 in assay [1] (setting [3]) stood at 24 µg/mL (≈ 63.2 µM). Also, the MIC in assay [2] (read-out: MIC) came out at 0.07 µg/mL (≈ 0.184 µM).
`CCNCC1CCN(c2c(F)cc3c(=O)c(C(=O)O)cn(C4CC4)c3c2F)C1` (stereo in doubt; 7) [PD-117558] gave an MIC in assay [2] of 0.09 µg/mL (≈ 0.23 µM).
Consider `CCNCC1CCN(c2cc3c(cc2F)c(=O)c(C(=O)O)cn3C2CC2)C1` (stereo in doubt; 66), for which the IC50 in assay [1] (v79) is 160 µg/mL (≈ 428 µM).
On to `NC1CCN(c2c(F)cc3c(=O)c(C(=O)O)cn(C4CC4)c3c2Cl)C1` (stereo in doubt; 33a) [CLINAFLOXACIN], for which, in assay [1] (v79), the IC50 was found to be 26 µg/mL (≈ 71.1 µM).
Take `CCNCC1CCN(c2c(F)cc3c(=O)c(C(=O)O)cn(C4CC4)c3c2Cl)C1` (stereo in doubt; 37a): the IC50 in assay [1] (setting [3]) was below 11 µg/mL.
As to `CCNCC1CCN(c2c(F)cc3c(=O)c(C(=O)O)cn(C4CC4)c3c2Cl)C1` (stereo in doubt; 69), in assay [2], the MIC amounted to 0.14 µg/mL (≈ 0.343 µM).
In assay [2], `CCNCC1CCN(c2cc3c(cc2F)c(=O)c(C(=O)O)cn3C2CC2)C1` (stereo in doubt; 16) displayed an MIC of 0.46 µg/mL (≈ 1.23 µM).
As to `COc1c(N2CCC(N)C2)c(F)cc2c(=O)c(C(=O)O)cn(C3CC3)c12` (stereo in doubt; 35a), the IC50 in assay [1] (setting [3]) is 45 µg/mL (≈ 125 µM).
With `NC1CCN(c2c(F)cc3c(=O)c(C(=O)O)cn(C4CC4)c3c2F)C1` (stereo in doubt; 43), the IC50 in assay [1] (v79) was 30 µg/mL (≈ 85.9 µM).
